The subject of one data set is serotonin receptors. The experiment in a line: Radioligand binding selectivity panel (Eurofins Discovery). To be noted: FIG. 3A; binding profile compared to (+)-LSD.
For data set [1], the system named is dendritic spine density in the PFC. The experiment in a line: In vivo spinogenesis (electron microscopy). Also on record: species or system C57BL/6J mice. To be noted: single dose 1 mg/kg, 24 h after administration, 3 animals per group. The method, then: In Vivo Spinogenesis. Female C57BL/6J mice (Jackson Laboratory, Sacramento, C.A.) were treated with VEH (saline) or (+)-JRT (n=3/group). After 24 h, the animals were sacrificed via transcardial perfusion with oxygenated Ringer's solution followed by a fixative (2% paraformaldehyde, 2.5% glutaraldehyde, 3 mM calcium chloride in 0.1 M cacodylate buffer). Brains were carefully removed from the skull and post-fixed overnight in the same fixative. Brains were then rinsed with PBS and 100 μm coronal sections spanning the prefrontal cortex were collected using a vibrating microtome (Leica). Regions of the infralimbic cortex were microdissected according to the Allen brain atlas and processed further for electron microscopy. Briefly, samples were stained with buffered 1.5% reduced osmium tetroxide for 45 minutes, rinsed thoroughly, further stained with 1% aqueous uranyl acetate overnight at 4° C., dehydrated and embedded in Eponate 12 epoxy resin. A blockface that spanned from the medial cortical surface to the corpus collosum was trimmed and 150-250 serial ultrathin sections (55 nm) were collected onto silicon chips using diamond knives (Diatome) on an ultramicrotome (Leica). Serial sections on silicon chips were loaded into the scanning electron microscope (SEM; Zeiss Sigma VP) for imaging. […] Dendritic spine densities (spines/micron) were calculated for each volume.

The next data set concerns 5-HT2 receptors. The experiment in a line: Traditional GPCR binding and functional assays (radioligand binding, IP1, β-arrestin). Type of data set: cell-based, human. To be noted: FIG. 3B. As to the method: Radioligand Binding Assays (5-HT2AR and 5-HT2CR). The 5-HT2AR and 5-HT2CR competitive radioligand binding assays were performed at Epics Therapeutics S.A. (Belgium, FAST-0505B) using conventional methods. Briefly, competition binding was performed in duplicate in the wells of a 96-well plate (Master Block, Greiner, 786201) containing binding buffer, membrane extracts, radiotracer [^3H]-DOI and test compound. Nonspecific binding was determined by co-incubation with 200-fold excess of cold competitor DOI. The samples were incubated in a final volume of 0.1 mL at a temperature and for a duration optimized for either the 5-HT2AR or 5-HT2CR and then filtered over filter plates. […] The plates were incubated for 15 min on an orbital shaker and then counted with a TopCount™ for 1 min/well. […]
IP1 Assay (5-HT2AR and 5-HT2CR). […] After addition of the lysis buffer containing IP1-d2 and anti-IP1 cryptate detection reagents, plates were incubated for 1 h at room temperature and fluorescence ratios were measured according to the manufacturer's specifications using the HTRF kit. […]
β-Arrestin Activation (PathHunter®). […] PK and EA are then expressed as fusion proteins in U2OS cells, with PK fused to the GPCR of interest, and EA fused to β-Arrestin. […]
Serotonin 5-HT2A In Vitro Radioligand Binding Competition Assay. […] Nonspecific binding is determined by co-incubation with 200-fold excess of cold competitor. […]

The subject of the next data set is C57BL/6J mice. Briefly: Head-twitch response (HTR) assay. The format is in vivo, mouse. The method, then:
Head-Twitch Response Assay. The HTR assay was performed using equal numbers of male and female C57BL/6J mice. The mice were obtained from The Jackson Laboratory (Sacramento, CA) and were approximately 8-12 weeks old at the time of the experiments. After compound administration, animals were placed into an empty arena (40 cm×40 cm) and filmed for 20 min. The arena was cleaned with 70% ethanol between trials. Animals were given a one-week washout period before being tested again. Animals were tested a maximum of 4 times. All drug treatments were randomized and no animal received the same drug and dose twice. For the blocking experiments, animals were administered (+)-JRT (1 mg/kg) or vehicle (saline) via IP injection and placed in an empty cage for 15 min. Animals were then administered LSD (0.2 mg/kg, IP), placed in the test arena, and filmed for 20 min. Videos were scored later by two blinded observers, and the results were averaged (Pearson correlation coefficient>0.9).

In the case of `CCN(CC)C(=O)[C@@H]1C=C2c3cccc4ccn(c34)C[C@H]2N(C)C1` [(+)-JRT], in the data set on serotonin receptors, the “receptor selectivity (binding profile)” value is given as “highly selective for serotonin receptors”. For the same molecule, the “dendritic spine density in the PFC” value in data set [1] was “increases dendritic spine density”. Also, the “agonism of 5-HT2 receptors” value in the data set with 5-HT2 receptors was “potent agonist of 5-HT2 receptors”. Besides, the “HTR induced by LSD (antipsychotic properties)” value in the data set on C57BL/6J mice ((+)-JRT 1 mg/kg pretreatment, LSD 0.2 mg/kg) was “antagonizing a HTR induced by LSD”. The “hallucinogenic potential (mouse head-twitch response, agonist mode)” value with C57BL/6J mice (male and female mice, agonist mode) is “low hallucinogenic potential”.

For the origin of these results see patent US12637464B2, “Tetracyclic compounds for treating brain disorders” (The Regents of the University of California, priority 2021, dated 2026).
